# Data from ChEMBL document CHEMBL1201862, “PubChem BioAssay data set” (2004).
# “And” between values parts separate entries of the source, which are not always exact repeats. Equal entries are not always repeated. The source made the active and inactive calls.
# Columns and labels:
# Cytochrome P450 3A4 = Cytochrome P450 3A4 (Homo sapiens, UniProt P08684); details: Potency;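 also: confirmatory qHTS run detecting inhibitors and substrates of CYP3A4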
# [1] = target: T1, Heat shock factor protein 1 (Mus musculus, UniProt P38532); assay: HSF1 potentiators in luciferase reporter cells, confirmation, cell-based, NIH3T3, luminescence, dose retest (AID 435004); assay type: functional;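 also: stress induced by proteasome inhibitor MG132 added 30 min after compound; luciferase reporter driven by HSF1 response element in NIH3T3 cells; actives raise luminescence as potentiators of the MG132 stress response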
# T1 sequence (P38532 whole entry): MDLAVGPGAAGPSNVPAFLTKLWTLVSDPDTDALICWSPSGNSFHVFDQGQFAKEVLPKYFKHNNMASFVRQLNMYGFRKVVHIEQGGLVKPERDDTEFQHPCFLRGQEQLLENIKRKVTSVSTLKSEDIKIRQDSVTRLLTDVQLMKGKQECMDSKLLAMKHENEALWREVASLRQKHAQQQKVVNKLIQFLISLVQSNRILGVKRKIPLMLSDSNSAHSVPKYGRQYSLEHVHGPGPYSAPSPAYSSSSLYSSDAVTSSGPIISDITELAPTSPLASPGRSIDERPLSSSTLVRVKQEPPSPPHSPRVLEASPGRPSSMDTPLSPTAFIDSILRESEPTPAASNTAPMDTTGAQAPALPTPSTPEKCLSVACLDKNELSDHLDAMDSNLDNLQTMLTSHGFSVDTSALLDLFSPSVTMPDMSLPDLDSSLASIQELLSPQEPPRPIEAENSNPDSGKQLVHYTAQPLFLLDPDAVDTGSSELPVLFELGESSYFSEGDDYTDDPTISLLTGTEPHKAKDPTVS
# [2] = Shn3 3'UTR reporter inhibitors, dose response, cell-based, Clone20 osteoblasts, firefly luciferase, cherry-picked (AID 624132); assay type: functional;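 also: firefly luciferase luminescence from reporter carrying the Shn3 3'UTR in osteoblasts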
# [3] = HepG2 cell cytotoxicity, dose response, cytotoxicity control for Shn3 inhibitor project, CellTiter-Glo, cherry-picked (AID 624134); assay type: functional, cell-based
# [4] = control 3'UTR Renilla luciferase suppression, dose response, counter-screen for Shn3 inhibitor project, cell-based, Clone20-Shn3RL, cherry-picked (AID 624133); assay type: functional
# [5] = NIH-3T3 fibroblast cytotoxicity, dose response, cytotoxicity control, cell-based, fluorescence, Alamar Blue, secondary assay (AID 2327); assay type: functional;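 also: NIH-3T3 mouse fibroblasts cultured with fluconazole at 8 µg/mL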
# [6] = C. albicans growth with fluconazole, confirmation, fluorescence, retest (AID 2467); assay type: functional, cell-based
# [7] = cytotoxicity in HPDE-C7 cells, cell-based, fluorescence, HTS (AID 430); assay type: functional; details: Homo sapiens
# [8] = cytotoxicity in KRAS-transformed pancreatic duct cells, primary screen, cell-based, fluorescence, HTS (AID 431); assay type: functional; details: Homo sapiens;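 also: cell line used: HPDE-C7K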
# [9] = target: Induced myeloid leukemia cell differentiation protein Mcl-1 (Homo sapiens, UniProt Q07820); assay type: functional
# Leucine aminopeptidase = target: T2, Leucine aminopeptidase (Plasmodium falciparum 3D7, UniProt Q8IL11); assay: P. falciparum M17LAP inhibitors, primary screen, biochemical, fluorogenic H-Leu-NHMec substrate, 1536-well (AID 1619); assay type: functional
# T2 sequence (Q8IL11 whole entry): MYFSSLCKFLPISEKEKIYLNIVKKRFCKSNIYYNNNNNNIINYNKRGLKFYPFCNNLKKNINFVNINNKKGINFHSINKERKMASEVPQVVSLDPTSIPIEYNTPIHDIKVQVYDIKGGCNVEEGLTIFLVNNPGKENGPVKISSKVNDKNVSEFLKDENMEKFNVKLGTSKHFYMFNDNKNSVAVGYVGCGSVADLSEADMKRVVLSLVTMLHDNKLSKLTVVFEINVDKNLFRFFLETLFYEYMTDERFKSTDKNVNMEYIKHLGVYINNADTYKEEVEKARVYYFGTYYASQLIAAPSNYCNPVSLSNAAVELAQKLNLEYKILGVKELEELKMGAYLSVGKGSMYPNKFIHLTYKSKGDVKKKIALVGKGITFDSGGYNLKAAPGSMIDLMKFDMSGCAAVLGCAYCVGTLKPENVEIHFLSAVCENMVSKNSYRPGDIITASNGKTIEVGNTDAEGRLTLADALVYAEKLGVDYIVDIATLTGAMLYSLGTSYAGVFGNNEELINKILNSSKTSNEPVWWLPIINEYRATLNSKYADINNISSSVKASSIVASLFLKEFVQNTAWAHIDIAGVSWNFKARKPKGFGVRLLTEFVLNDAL
# [10] = inhibitors of intracellular T. cruzi replication, confirmation, NIH3T3 host cells, beta-gal luminescence (AID 2044); assay type: functional, cell-based;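 also: intracellular parasites grown in NIH/3T3 mouse fibroblasts as host cells; luminescent beta-galactosidase reporter signal from transgenic T. cruzi replicating inside host cells; inhibitors lower the luminescence signal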
# [11] = microbe, parasite or virus in culture; assay type: functional; details: Mycobacterium tuberculosis
# [12] = cytotoxicity toward NIH3T3 fibroblasts, dose response, counter-screen, cell-based, ATP luminescence, mouse fibroblasts (AID 2010); assay type: functional;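 also: cells exposed to compound for about 90 hours before reading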
# [13] = system: Streptococcus sp. 'group A'; assay: growth inhibition of control SK(-) GAS strain, dose response, counter-screen for streptokinase expression inhibitor project, luminescence, kanamycin, BacTiterGlo, confirmation (AID 1900); assay type: functional, organism-based
# Streptococcus = assay: Group A Streptococcus viability loss, dose response, counter-screen for streptokinase expression inhibitor project, luminescence, BacTiterGlo (AID 1915); assay type: functional, organism-based;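 also: potency for reduction of bacterial viability or growth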
# [14] = Luminescence Cell-Based Dose Retest to Confirm Inhibitors of Cancer Stem Cells. [Related pubchem assays (depositor defined):AID2717, AID2721]; assay type: functional; details: Homo sapiens
# Prothrombin = Prothrombin (Homo sapiens, UniProt P00734); assay: Thrombin 1536 HTS Dose Response Confirmation. [Related pubchem assays: 1046 (Thrombin 1536 HTS; hits were confirmed in this assay)]; assay type: functional
# [15] = growth suppression of PTEN-null colon cells, dose response, cell-based, HCT116 PTEN knockout (AID 1047); assay type: functional;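 also: HCT116 colon tumor cells with PTEN knocked out; cells exposed to compound for 60 hours before readout; potency for loss of cell viability measured by luminescence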
# [16] = growth suppression of beta-catenin-knockout colon cells, dose response, cell-based, HCT116, human colon tumor (AID 1045); assay type: functional;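 also: HCT116 colon tumor cells with beta catenin knocked out; cells exposed to compound for 60 hours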
# [17] = target: T3, Replicative DNA helicase DnaB (Mycobacterium tuberculosis, UniProt P9WMR3); assay: DnaB intein splicing inhibitors, dose response, biochemical, cell-free fluorescence (AID 449749); assay type: functional
# T3 sequence (P9WMR3 whole entry): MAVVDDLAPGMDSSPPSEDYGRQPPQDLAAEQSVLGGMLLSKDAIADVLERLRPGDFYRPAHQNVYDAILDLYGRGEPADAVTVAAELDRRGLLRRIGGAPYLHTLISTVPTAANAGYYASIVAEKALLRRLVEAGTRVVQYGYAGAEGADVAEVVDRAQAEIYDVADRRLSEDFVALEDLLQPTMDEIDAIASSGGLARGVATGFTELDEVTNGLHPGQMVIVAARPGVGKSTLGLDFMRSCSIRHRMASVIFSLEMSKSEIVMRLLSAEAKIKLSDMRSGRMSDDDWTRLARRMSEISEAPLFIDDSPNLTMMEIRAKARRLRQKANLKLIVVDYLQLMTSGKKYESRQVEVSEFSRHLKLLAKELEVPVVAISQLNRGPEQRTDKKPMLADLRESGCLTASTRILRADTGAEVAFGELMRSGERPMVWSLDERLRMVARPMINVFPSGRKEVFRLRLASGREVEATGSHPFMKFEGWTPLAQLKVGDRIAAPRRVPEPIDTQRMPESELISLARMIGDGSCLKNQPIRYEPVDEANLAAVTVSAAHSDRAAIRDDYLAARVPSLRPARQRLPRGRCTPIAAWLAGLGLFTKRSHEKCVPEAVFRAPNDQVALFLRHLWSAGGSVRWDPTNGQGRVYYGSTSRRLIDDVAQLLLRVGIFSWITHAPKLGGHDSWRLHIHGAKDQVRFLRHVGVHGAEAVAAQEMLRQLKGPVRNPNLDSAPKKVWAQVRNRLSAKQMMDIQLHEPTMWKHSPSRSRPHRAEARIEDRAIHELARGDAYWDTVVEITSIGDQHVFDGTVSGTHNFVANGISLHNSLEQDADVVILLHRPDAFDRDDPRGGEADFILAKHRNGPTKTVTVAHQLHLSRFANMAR
# Protein RecA = target: T4, Protein RecA (Mycobacterium tuberculosis, UniProt P9WHJ3); assay: Fluorescence Cell-Free Homogeneous Dose Retest to Identify Inhibitors of RecA-Intein Splicing Activity. [Related pubchem assays (depositor defined):AID2097, AID2223, AID489010, AID492950]; assay type: functional
# T4 sequence (P9WHJ3 whole entry): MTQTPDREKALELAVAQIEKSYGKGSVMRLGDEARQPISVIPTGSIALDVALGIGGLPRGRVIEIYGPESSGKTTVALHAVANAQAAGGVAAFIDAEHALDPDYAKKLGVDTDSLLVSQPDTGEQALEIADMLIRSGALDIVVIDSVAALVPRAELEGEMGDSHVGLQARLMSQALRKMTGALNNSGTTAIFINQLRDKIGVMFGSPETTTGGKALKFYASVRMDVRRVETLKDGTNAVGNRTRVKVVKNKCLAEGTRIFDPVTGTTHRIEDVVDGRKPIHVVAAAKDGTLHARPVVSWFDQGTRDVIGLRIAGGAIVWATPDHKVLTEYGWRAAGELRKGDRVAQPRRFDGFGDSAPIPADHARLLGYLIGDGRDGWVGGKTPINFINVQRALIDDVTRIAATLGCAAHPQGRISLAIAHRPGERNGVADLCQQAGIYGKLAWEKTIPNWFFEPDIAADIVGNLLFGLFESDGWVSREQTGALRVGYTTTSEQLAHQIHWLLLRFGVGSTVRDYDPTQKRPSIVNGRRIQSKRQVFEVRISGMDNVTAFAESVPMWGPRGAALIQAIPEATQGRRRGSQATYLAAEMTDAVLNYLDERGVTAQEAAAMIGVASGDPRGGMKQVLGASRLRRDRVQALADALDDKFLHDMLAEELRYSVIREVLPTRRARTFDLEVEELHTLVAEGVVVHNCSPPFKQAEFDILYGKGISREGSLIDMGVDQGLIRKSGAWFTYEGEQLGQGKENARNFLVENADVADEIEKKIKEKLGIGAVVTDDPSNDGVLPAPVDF
# SN12K1 = assay: cells; assay type: functional; details: Homo sapiens
# P388 = assay: cells; assay type: functional; details: Mus musculus;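 also: compound exposure lasted 48 hours before growth was measured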
# Sequence of Cytochrome P450 3A4 (P08684 whole entry): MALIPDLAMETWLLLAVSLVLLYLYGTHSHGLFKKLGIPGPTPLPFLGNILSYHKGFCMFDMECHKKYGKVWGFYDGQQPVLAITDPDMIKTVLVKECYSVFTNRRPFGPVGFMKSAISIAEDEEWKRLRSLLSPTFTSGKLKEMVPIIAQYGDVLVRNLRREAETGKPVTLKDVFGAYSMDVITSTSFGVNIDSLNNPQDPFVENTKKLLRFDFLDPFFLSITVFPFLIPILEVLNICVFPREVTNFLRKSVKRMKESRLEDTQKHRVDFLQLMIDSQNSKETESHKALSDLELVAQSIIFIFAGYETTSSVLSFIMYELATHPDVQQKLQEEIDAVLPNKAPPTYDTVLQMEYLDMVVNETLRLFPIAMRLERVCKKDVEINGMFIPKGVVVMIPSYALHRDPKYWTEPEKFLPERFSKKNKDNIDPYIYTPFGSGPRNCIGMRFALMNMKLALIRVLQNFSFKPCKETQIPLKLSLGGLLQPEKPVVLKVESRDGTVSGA
# Sequence of Induced myeloid leukemia cell differentiation protein Mcl-1 (Q07820 whole entry): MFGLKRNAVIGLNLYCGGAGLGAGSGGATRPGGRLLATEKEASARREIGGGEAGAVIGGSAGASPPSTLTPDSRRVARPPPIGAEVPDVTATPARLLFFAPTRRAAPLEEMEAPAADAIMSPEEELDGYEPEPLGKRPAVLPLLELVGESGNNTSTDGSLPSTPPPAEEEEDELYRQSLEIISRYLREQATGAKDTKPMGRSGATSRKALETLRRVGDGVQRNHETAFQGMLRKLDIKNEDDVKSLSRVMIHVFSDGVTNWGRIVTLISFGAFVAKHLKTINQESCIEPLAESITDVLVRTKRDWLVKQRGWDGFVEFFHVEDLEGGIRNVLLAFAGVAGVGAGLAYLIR
smiles,measurement,setting,value
CC(=O)OC[C@@]1(O)C[C@]23CCC4c5ccoc5CC[C@@]4(C)C2CCC1C3 (some centres not stated),AC50,Cytochrome P450 3A4,31.6 µM (inconclusive)
OCC1OC(C#Cc2ccccc2)C=CC1O (configuration not stated),AC50,Cytochrome P450 3A4,3.16 µM (inconclusive) and 6.31 µM (inconclusive) (2×)
Cc1cccc(N2CCN(C(=O)CSCc3c(C)noc3C)CC2)c1C,EC50,[1],243 µM (active)
same,AC50,[2],2.41 µM (active)
same,AC50,[3],36.3 µM (active)
same,AC50,[4],3.48 µM (active)
Cc1ccc(C2C3CSCC=C3C(C#N)=C(N)C2(C#N)C#N)cc1 (configuration not stated),EC50,[5],> 160 µM (inactive)
same,EC50,[6],> 38 µM (not active)
same,EC50,[7],17.4 µM (active)
same,EC50,[8],> 20 µM (not active)
O=C(/C=C/c1ccccc1)c1ccc(NC2=NCCCS2)cc1,IC50,[9],8.3 µM (active)
COc1ccc(OC)c(S(=O)(=O)n2nnc3cc(Cl)ccc32)c1,IC50,Leucine aminopeptidase,103 µM (active)
O=C(O)C1CC=CCC1C(=O)Nc1ccccc1 (configuration not stated),IC50,Leucine aminopeptidase,29 µM (active)
COc1ccccc1C(=O)N=C(NC(=O)c1ccccc1OC)Nc1nc2ccccc2o1,EC50,[7],4.28 µM (active)
same,EC50,[10],1.38 µM (active)
same,CC50,[11],14 µM (active)
same,EC50,[8],5.05 µM (active)
same,EC50,[12],> 60 µM (not active)
CCCOC(=O)c1ccc(Oc2c(C)n[nH]c2-c2ccc(OCC)cc2O)cc1,EC50,[13],11.1 µM (active)
same,EC50,[7],11.9 µM (active)
same,EC50,[8],7.31 µM (active)
same,EC50,Streptococcus,> 150 µM (not active)
same,AC50,[14],3.66 µM (active)
COCCCNC(=O)/C(=C\c1cccn1C)NC(=O)c1cccs1,IC50,Prothrombin,> 50 µM (inconclusive)
O=C(c1cc2ccccc2[nH]1)N1CCOCC1,IC50,Prothrombin,> 50 µM (not active)
Cc1cc(C)n(S(=O)(=O)/C=C/c2ccccc2)n1,EC50,[7],9.1 µM (active)
same,EC50,[8],9.65 µM (active)
same,EC50,[1],12.1 µM (active)
CCCn1c(-c2ccc(F)cc2)nc2c(NCCCN(CC)CC)nc(C)nc21,AC50,Cytochrome P450 3A4,20 µM (inconclusive)
Cn1c(N)c(C(=O)COC(=O)c2cc(C3CC3)nc3ccccc23)c(=O)n(C)c1=O,AC50,Cytochrome P450 3A4,39.8 µM (inconclusive)
C=C(CCC(=O)c1ccccc1)C(=O)c1ccccc1,CC50,[11],17.7 µM (active)
same,EC50,[15],9.9 µM (active)
same,IC50,Prothrombin,> 50 µM (not active)
same,EC50,[16],8.26 µM (active)
same,EC50,[1],15 µM (active)
O=C(Nc1ccc(Cc2ccncc2)cc1)c1ccco1,IC50,Prothrombin,> 50 µM (not active)
O=C(NC1CCCCC1)C1CCN(c2nnnn2-c2ccccc2)CC1,IC50,Prothrombin,> 50 µM (not active)
COc1ccc(NC(=O)C(CC(=O)O)Cc2ccccc2)cc1 (configuration not stated),IC50,Leucine aminopeptidase,28.1 µM (active)
Cc1cc(NS(=O)(=O)c2ccc(NC(=O)CSc3nnc(-c4ccco4)n3N)cc2)nc(C)n1,IC50,Prothrombin,> 50 µM (not active)
O=C1C=C(NCc2ccc(Cl)c(Cl)c2)CC1,EC50,[7],> 20 µM (not active)
same,EC50,[8],> 20 µM (not active)
CC(=O)N1CC=CC1(C)C(=O)NCC1CC1 (configuration not stated),AC50,Cytochrome P450 3A4,31.6 µM (inconclusive)
Cc1ccc(C(=O)COC(=O)CNC(=O)c2ccc(N3C(=O)c4ccccc4C3=O)cc2)cc1C,IC50,[9],2.13 µM (not active)
Cc1ccc(-c2[nH]nc3c2C(c2ccsc2)C(C#N)=C(N)O3)cc1 (configuration not stated),IC50,Leucine aminopeptidase,11.3 µM (active)
same,AC50,[17],3.26 µM (active)
same,EC50,Protein RecA,1.2 µM (active)
COc1cccc2c1C(=O)c1c(O)c3c(c(O)c1C2=O)C[C@@](O)(C(=O)CO)C[C@@H]3OC1CC(N2CCOCC2C#N)C(O)C(C)O1 (some centres not stated),GI50,SN12K1,11.3 pM (active)
same,GI50,P388,2.9 pM (active)
CCc1nnc(NS(=O)(=O)c2ccc(/N=C/c3c(C)[nH]n(-c4cccc(Cl)c4)c3=O)cc2)s1,IC50,Leucine aminopeptidase,11.3 µM (active)
O=C(CSc1nnc(O)nc1O)N/N=C/c1ccccc1,IC50,Leucine aminopeptidase,21.1 µM (active)
O=C(N/N=C/c1ccccc1[N+](=O)[O-])c1ccc2[nH]cnc2c1,IC50,Prothrombin,2.34 µM (active)
NC(=O)/N=N/C(N)=O [E927A],AC50,Cytochrome P450 3A4,31.6 µM (inconclusive)
